Laboratory results as given in ChEMBL document CHEMBL5244279, “Perspectives on SARS-CoV-2 Main Protease Inhibitors” (J Med Chem, 2021).

Assays:
[1] = biological target: T1, Replicase polyprotein 1ab (Severe acute respiratory syndrome coronavirus 2, UniProt P0DTD1); assay: Inhibition of SARS CoV-2 Main protease using MCA-AVLQSGFR-Lys(DNP)-Lys-NH2 peptide as substrate by fluorescence based analysis
[2] = Binding affinity to SARS CoV N-terminal his-tagged Main protease using Dabcyl-KTSAVLQSGFRKME-Edan peptide as substrate by fluorescence based analysis; parameters: species or system Severe acute respiratory syndrome-related coronavirus
[3] = tested on: SARS-CoV-2; format: functional, organism-based, Vero E6; conditions: Severe acute respiratory syndrome coronavirus 2, Vero C1008
[4] = Cytotoxicity against cat CRFK cells assessed as reduction of cell viability; format: toxicity, cell-based, Felis catus
[5] = Cytotoxicity against mouse L929 cells assessed as reduction of cell viability; format: toxicity, cell-based
[6] = Cytotoxicity against human Huh-7 cells assessed as reduction of cell viability; format: toxicity, cell-based
[7] = tested on: SARS-CoV-2; format: functional, organism-based, Vero E6; conditions: Severe acute respiratory syndrome coronavirus 2, strain 107, Vero C1008
[8] = biological target: T1, Replicase polyprotein 1ab; assay: Inhibition of SARS CoV-2 Main protease incubated for 10 min by FRET assay

SMILES	IC50 [1]	IC50 [8]	further results
Cc1ccc(-n2sc3ccccc3c2=O)cc1	330 nM		
O=C(NCc1ccco1)c1ccc(-n2sc3ccccc3c2=O)cc1	380 nM		
CCCNC(=O)c1ccc(-n2sc3ccccc3c2=O)cc1	230 nM		
Cn1sc2ccccc2c1=O	780 nM		
CCN(CC)c1ccc(C(=O)On2nnc3ccccc32)cc1			Ki [2]: 11.1 nM
C=CCn1sc2ccccc2c1=O	630 nM		
O=c1[nH]sc2ccccc12	660 nM		
CC(C)Cn1sc2ccccc2c1=O	480 nM		
O=C(O)c1ccc(-n2[se]c3ccccc3c2=O)cc1	130 nM		
COC(=O)c1ccc(-n2sc3ccccc3c2=O)cc1	360 nM		
O=C(O)Cn1[se]c2ccccc2c1=O	410 nM		
Nc1ccccc1-n1sc2ccccc2c1=O	130 nM		
O=c1c2ccccc2sn1CCO	410 nM		
O=c1c2ccccc2sn1-c1ccccc1	490 nM		
O=C(O)CCn1[se]c2ccccc2c1=O	350 nM		
O=C(On1nnc2ccccc21)c1cc2ccccc2[nH]1			Ki [2]: 12.3 nM
O=C[C@H](C[C@@H]1CCNC1=O)NC(=O)[C@H](Cc1ccccc1)NC(=O)/C=C/c1ccc(Cl)cc1F			IC50 [3]: 200 nM
O=c1c2ccccc2[se]n1CCN1CCOCC1	240 nM		
O=c1c2ccccc2[se]n1CCO	650 nM		
CC(C)C[C@H](NC(=O)OCc1ccccc1)C(=O)N[C@H](C=O)C[C@@H]1CCNC1=O			CC50 [4]: […]; IC50 [3]: 70 nM; CC50 [5]: […]; CC50 [6]: […]
CC(C)C[C@H](NC(=O)OCC1CCC(F)(F)CC1)C(=O)N[C@H](C=O)C[C@@H]1CCNC1=O			CC50 [4]: > 100000 nM; CC50 [5]: > 100000 nM; CC50 [6]: > 100000 nM
CN(C)c1ccc(/C=C/C(=O)N[C@@H](Cc2ccccc2)C(=O)N[C@H](C=O)C[C@@H]2CCNC2=O)cc1			IC50 [3]: 500 nM
O=c1c2ccccc2sn1Cc1ccco1	110 nM		Ki [1]: 78 nM

SMILES	IC50 [1]	IC50 [8]	further results
CC(C)C[C@H](NC(=O)/C=C/c1ccccc1)C(=O)N[C@H](C=O)C[C@@H]1CCNC1=O			IC50 [3]: 830 nM
O=C[C@H](C[C@@H]1CCNC1=O)NC(=O)[C@@H]1[C@H]2CCC[C@H]2CN1C(=O)CCc1cc(F)cc(F)c1			EC50 [7]: 5630 nM
O=C[C@H](C[C@@H]1CCNC1=O)NC(=O)[C@@H]1[C@H]2CCC[C@H]2CN1C(=O)COc1ccc(Cl)c(Cl)c1		30 nM	EC50 [7]: 830 nM
CC(C)C[C@H](NC(=O)OC1CCCCC1)C(=O)N[C@H](C=O)C[C@@H]1CCNC1=O			CC50 [4]: > 100000 nM; IC50 [3]: 3900 nM; CC50 [5]: > 100000 nM; CC50 [6]: > 100000 nM
COc1ccc(OCC(=O)N2C[C@H]3[C@@H]([C@H]2C(=O)N[C@H](C=O)C[C@@H]2CCNC2=O)C3(C)C)cc1OC		14.5 nM	EC50 [7]: 1730 nM
CC1(C)[C@@H]2[C@@H](C(=O)N[C@H](C=O)C[C@@H]3CCNC3=O)N(C(=O)COc3ccc(F)c(F)c3)C[C@@H]21		13.2 nM	EC50 [7]: 5570 nM
CNc1ccc(C(=O)On2nnc3ccccc32)cc1			Ki [2]: 12.1 nM
CC(C)(C)OC(=O)NCn1[se]c2ccccc2c1=O	330 nM		
CC1(C)[C@@H]2[C@@H](C(=O)N[C@H](C=O)C[C@@H]3CCNC3=O)N(C(=O)COc3cc(F)cc(F)c3)C[C@@H]21		18.5 nM	EC50 [7]: 1640 nM
O=C[C@H](C[C@@H]1CCNC1=O)NC(=O)[C@@H]1[C@H]2CCC[C@H]2CN1C(=O)c1cccnc1		748 nM	
CCCCNC(=O)c1ccc(-n2sc3ccccc3c2=O)cc1	910 nM		
COc1ccc(OC(C)C(=O)N2C[C@@H]3CCC[C@@H]3[C@H]2C(=O)N[C@H](C=O)C[C@@H]2CCNC2=O)cc1 (stereo partly drawn)		69.1 nM	
CN(C)c1ccc(CCC(=O)N2C[C@@H]3CCC[C@@H]3[C@H]2C(=O)N[C@H](C=O)C[C@@H]2CCNC2=O)cc1		378 nM	
O=C[C@H](C[C@@H]1CCNC1=O)NC(=O)[C@@H]1[C@H]2CCC[C@H]2CN1C(=O)COc1ccc(Cl)cc1			EC50 [7]: 670 nM
CC1(C)[C@@H]2[C@@H](C(=O)N[C@H](C=O)C[C@@H]3CCNC3=O)N(C(=O)CCc3cccc(F)c3)C[C@@H]21		16.5 nM	EC50 [7]: 2230 nM
O=C[C@H](C[C@@H]1CCNC1=O)NC(=O)[C@@H]1[C@H]2CCC[C@H]2CN1C(=O)CCc1cccc(F)c1			EC50 [7]: 2970 nM
CC1(C)[C@@H]2[C@@H](C(=O)N[C@H](C=O)C[C@@H]3CCNC3=O)N(C(=O)COc3ccc(Cl)cc3)C[C@@H]21		19 nM	EC50 [7]: 530 nM
CCCC1CCC(OC(=O)N[C@@H](CC(C)C)C(=O)N[C@H](C=O)C[C@@H]2CCNC2=O)CC1 (stereo partly drawn)			CC50 [4]: > 100000 nM; CC50 [5]: > 100000 nM; CC50 [6]: > 100000 nM
O=c1c2ccccc2sn1CCCCc1ccccc1	410 nM		
O=C[C@H](C[C@@H]1CCNC1=O)NC(=O)[C@@H]1[C@H]2CCC[C@H]2CN1C(=O)CCc1ccc(F)c(F)c1		17.4 nM	EC50 [7]: 30500 nM
O=C[C@H](C[C@@H]1CCNC1=O)NC(=O)[C@@H]1[C@H]2CCC[C@H]2CN1C(=O)c1cc2ccccc2[nH]1		153 nM	
COc1ccc(OCC(=O)N2C[C@@H]3CCC[C@@H]3[C@H]2C(=O)N[C@H](C=O)C[C@@H]2CCNC2=O)cc1		36.2 nM	EC50 [7]: 24700 nM
CCCn1sc2ccccc2c1=O	730 nM		

SMILES	IC50 [1]	IC50 [8]	further results
O=C[C@H](C[C@@H]1CCNC1=O)NC(=O)[C@H](Cc1ccccc1)NC(=O)/C=C/c1cccc(Br)c1			IC50 [3]: 700 nM
COc1ccc(/C=C/C(=O)N2C[C@@H]3CCC[C@@H]3[C@H]2C(=O)N[C@H](C=O)C[C@@H]2CCNC2=O)c(OC)c1		196 nM	
O=C[C@H](C[C@@H]1CCNC1=O)NC(=O)[C@@H]1[C@H]2CCC[C@H]2CN1C(=O)COc1ccc2c(c1)OCCO2		93.5 nM	
CC1(C)[C@@H]2[C@@H](C(=O)N[C@H](C=O)C[C@@H]3CCNC3=O)N(C(=O)COc3ccc(Br)cc3Cl)C[C@@H]21		13.3 nM	EC50 [7]: 1180 nM
O=c1c2ccccc2[se]n1-c1cccc([N+](=O)[O-])c1	150 nM		
CC1(C)[C@@H]2[C@@H](C(=O)N[C@H](C=O)C[C@@H]3CCNC3=O)N(C(=O)c3ccc4ccccc4c3)C[C@@H]21		453 nM	
CN(C)c1ccc(/C=C/C(=O)N2C[C@@H]3CCC[C@@H]3[C@H]2C(=O)N[C@H](C=O)C[C@@H]2CCNC2=O)cc1		375 nM	
CCCCC1CCC(OC(=O)N[C@@H](CC(C)C)C(=O)N[C@H](C=O)C[C@@H]2CCNC2=O)CC1 (stereo partly drawn)			CC50 [4]: 63300 nM; IC50 [3]: 900 nM; CC50 [5]: 63300 nM; CC50 [6]: 63300 nM
CC1(C)[C@@H]2[C@@H](C(=O)N[C@H](C=O)C[C@@H]3CCNC3=O)N(C(=O)COc3cccc(C(F)(F)F)c3)C[C@@H]21		43.3 nM	EC50 [7]: 17000 nM
COc1ccc(OCC(=O)N2C[C@H]3[C@@H]([C@H]2C(=O)N[C@H](C=O)C[C@@H]2CCNC2=O)C3(C)C)cc1F		37.2 nM	EC50 [7]: 4680 nM
O=C[C@H](C[C@@H]1CCNC1=O)NC(=O)[C@@H]1[C@H]2CCC[C@H]2CN1C(=O)/C=C/c1ccccc1		526 nM	
CC1(C)[C@@H]2[C@@H](C(=O)N[C@H](C=O)C[C@@H]3CCNC3=O)N(C(=O)COc3ccc(Cl)c(Cl)c3)C[C@@H]21		12.4 nM	EC50 [7]: 2080 nM
CC1(C)[C@@H]2[C@@H](C(=O)N[C@H](C=O)C[C@@H]3CCNC3=O)N(C(=O)COc3ccc4ccccc4c3)C[C@@H]21		52.1 nM	
CC1(C)[C@@H]2[C@@H](C(=O)N[C@H](C=O)C[C@@H]3CCNC3=O)N(C(=O)COc3ccc(Br)c(Cl)c3)C[C@@H]21		50.8 nM	
Cc1cc(Cl)ccc1OCC(=O)N1C[C@@H]2CCC[C@@H]2[C@H]1C(=O)N[C@H](C=O)C[C@@H]1CCNC1=O		19.7 nM	EC50 [7]: 1500 nM
CCCC1CCC(OC(=O)N[C@@H](CC(C)C)C(=O)N[C@@H](C[C@@H]2CCNC2=O)C(O)S(=O)(=O)O)CC1 (stereo partly drawn)			CC50 [4]: > 100000 nM; CC50 [5]: > 100000 nM; CC50 [6]: > 100000 nM
CC1(C)[C@@H]2[C@@H](C(=O)N[C@H](C=O)C[C@@H]3CCNC3=O)N(C(=O)COc3ccc(Cl)cc3Cl)C[C@@H]21		13 nM	EC50 [7]: 660 nM
O=C[C@H](C[C@@H]1CCNC1=O)NC(=O)[C@@H]1[C@H]2CCC[C@H]2CN1C(=O)c1cc2ccccn2n1		299 nM	
O=C[C@H](C[C@@H]1CCNC1=O)NC(=O)[C@@H]1[C@H]2CCC[C@H]2CN1C(=O)COc1ccc(Cl)cc1F		34.7 nM	EC50 [7]: 1650 nM
O=c1c2ccccc2sn1-c1ccc(Cl)cc1	390 nM		
O=c1c2ccccc2sn1Cc1ccccc1	170 nM		
